Test results reported in patent US20240384268A1, “Oligonucleotides” (Hudson Institute of Medical Research, priority 2021, published 2024).
In the oligonucleotide strings, read from the 5' end, every base follows the letter of its sugar. An asterisk marks phosphorothioate; unmarked linkages are phosphodiester. Other units and linkages are bracketed, terminal groups are in braces. A string of capitals states the bases alone. d = 2'-deoxy (DNA); m = 2'-O-methyl

Biological target: T1, TLR8 (Homo sapiens, UniProt Q9NR97)
T1 sequence (Q9NR97 27-1041): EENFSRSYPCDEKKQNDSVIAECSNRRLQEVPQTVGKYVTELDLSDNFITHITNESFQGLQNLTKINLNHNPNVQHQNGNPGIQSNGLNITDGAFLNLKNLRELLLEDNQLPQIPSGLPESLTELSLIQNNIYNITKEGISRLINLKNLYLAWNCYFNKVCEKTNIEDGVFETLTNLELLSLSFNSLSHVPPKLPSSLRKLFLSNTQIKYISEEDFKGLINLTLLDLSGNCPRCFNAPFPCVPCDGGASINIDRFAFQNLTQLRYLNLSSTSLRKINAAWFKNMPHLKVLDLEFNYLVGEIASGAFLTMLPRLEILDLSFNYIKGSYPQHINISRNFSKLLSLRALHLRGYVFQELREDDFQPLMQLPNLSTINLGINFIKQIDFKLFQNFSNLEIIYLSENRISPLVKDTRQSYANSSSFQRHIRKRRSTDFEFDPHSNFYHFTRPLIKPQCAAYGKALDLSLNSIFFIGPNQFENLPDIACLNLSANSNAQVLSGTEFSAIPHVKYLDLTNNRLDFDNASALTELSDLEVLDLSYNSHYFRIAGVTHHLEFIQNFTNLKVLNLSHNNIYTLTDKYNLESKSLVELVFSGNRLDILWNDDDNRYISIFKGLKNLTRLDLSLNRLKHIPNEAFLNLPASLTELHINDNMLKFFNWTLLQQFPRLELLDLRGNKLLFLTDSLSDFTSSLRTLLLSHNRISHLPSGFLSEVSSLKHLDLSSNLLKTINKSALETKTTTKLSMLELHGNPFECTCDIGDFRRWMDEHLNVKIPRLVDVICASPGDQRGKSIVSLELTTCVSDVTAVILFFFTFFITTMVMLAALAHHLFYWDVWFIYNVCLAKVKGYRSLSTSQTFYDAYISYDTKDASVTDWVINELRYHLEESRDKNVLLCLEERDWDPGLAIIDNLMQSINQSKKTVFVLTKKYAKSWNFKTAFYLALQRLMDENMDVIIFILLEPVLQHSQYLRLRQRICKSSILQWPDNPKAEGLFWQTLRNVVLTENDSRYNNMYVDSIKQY
Test: HEK-TLR8 NF-κB-luciferase reporter, R848 or Motolimod stimulation (potentiation or inhibition)
Assay type: cell-based
Parameters: expressed in transfected cells; host or cells: 293XLhTLR8 (HEK293)
Settings: for TLR8-500 nM: averaged NF-κB-Luciferase relative to R848: HEK-TLR8, 500 nM ASO, fold increase relative to R848 without ASO (Alharbi et al., 2020); for TLR8 100 nM: MOE-modified ASO at 100 nM; for TLR8 100 nM / TLR8 500 nM: averaged NF-κB-Luciferase relative to R848 condition (fold increase); for TLR8 500 nM: MOE-modified ASO at 500 nM

Substance	TLR8-500 nM: averaged NF-κB-Luciferase relative to R848	TLR8 100 nM	TLR8 500 nM
mU*mU*mA*mG*mC*T*C*C*T*T*G*C*C*T*C*mG*mU*mU*mC*mC (mU*mU*mA*mG*mC*dT*dC*dC*dT*dT*dG*dC*dC*dT*dC*mG*mU*mU*mC*mC; antisense) [[LINC-PINT] 1222]	8.41 fold	–	–
AGTCGTAGTTGCTTCCTAAC (antisense; 2'-MOE modified, pattern not given here) [MB21D1-1181 MOE]	–	3.091	5.889
mU*mA*mA*mA*mA*T*A*A*G*G*G*G*A*A*T*mA*mG*mG*mG*mG (mU*mA*mA*mA*mA*dT*dA*dA*dG*dG*dG*dG*dA*dA*dT*mA*mG*mG*mG*mG) [[CDKN2B-AS1]80]	1.30 fold	–	–
mG*mC*mG*mU*mA*G*T*T*T*C*T*C*T*T*C*mC*mU*mC*mC*mC (GCGUAGTTTCTCTTCCUCCC; sugars from the 5' end m5 d10 m5, all phosphorothioate, methylation of C not given here) [[LINC-PINT]935 KL]	4.12 fold	–	–
mG*mG*mA*mU*mU*A*A*A*A*C*A*G*A*T*T*mA*mA*mU*mA*mC (GGAUUAAAACAGATTAAUAC; sugars from the 5' end m5 d10 m5, all phosphorothioate, methylation of C not given here) [[CDKN2B-AS1]1774]	1.67 fold	–	–
mU*mG*mA*mC*mA*A*A*A*C*A*A*T*A*A*T*mA*mA*mC*mA*mG (mU*mG*mA*mC*mA*dA*dA*dA*dC*dA*dA*dT*dA*dA*dT*mA*mA*mC*mA*mG) [[LINC-PINT]384]	2.57 fold	–	–
mA*mA*mG*mG*mU*G*G*C*C*A*C*A*G*G*C*mA*mA*mC*mG*mU (mA*mA*mG*mG*mU*dG*dG*dC*dC*dA*dC*dA*dG*dG*dC*mA*mA*mC*mG*mU; antisense) [[CDKN2B-AS1]2198]	0.78 fold	–	–
mA*mU*mG*mA*mC*A*T*T*T*C*G*T*G*G*C*mU*mC*mC*mU*mA (mA*mU*mG*mA*mC*dA*dT*dT*dT*dC*dG*dT*dG*dG*dC*mU*mC*mC*mU*mA) [[LINC-PINT]524.1]	1.20 fold	–	–
mC*mC*mC*mU*mA*A*T*G*C*T*T*T*C*C*T*mC*mU*mC*mC*mA (mC*mC*mC*mU*mA*dA*dT*dG*dC*dT*dT*dT*dC*dC*dT*mC*mU*mC*mC*mA; antisense) [[LINC-PINT1877 KL]	8.39 fold	–	–
mG*mU*mC*mC*mG*T*A*C*C*T*C*C*A*C*C*mC″mA*mC*mC*mG [[LINC-PINT]727.1]	3.70 fold	–	–
mA*mG*mG*mA*mU*T*A*A*A*A*C*A*G*A*T*mU*mA*mA*mU*mA (mA*mG*mG*mA*mU*dT*dA*dA*dA*dA*dC*dA*dG*dA*dT*mU*mA*mA*mU*mA) [[CDKN2B-AS1] 1775]	2.63 fold	–	–
TGGGCTGGAATCCGAGTTAT (antisense; 2'-MOE modified, pattern not given here) [EGFR-4705 MOE]	–	1.452	2.058
mU*mU*mC*mU*mC*T*C*T*G*G*T*C*C*C*A*mU*mC*mC*mC*mU (mU*mU*mC*mU*mC*dT*dC*dT*dG*dG*dT*dC*dC*dC*dA*mU*mC*mC*mC*mU; antisense) [[LINC-PINT]111]	9.51 fold	–	–
mG*mC*mA*mA*mG*G*C*A*G*A*G*A*A*A*C*mU*mC*mC*mA*mG (GCAAGGCAGAGAAACUCCAG; sugars from the 5' end m5 d10 m5, all phosphorothioate, methylation of C not given here) [[LINC-PINT]1315 KL]	2.69 fold	–	–
mA*mG*mA*mU*mU*A*T*C*T*T*C*T*T*T*T*mA*mA*mU*mU*mU (AGAUUATCTTCTTTTAAUUU; sugars from the 5' end m5 d10 m5, all phosphorothioate, methylation of C not given here) [[CDKN2B-AS1]2130]	6.26 fold	–	–
mU*mC*mC*mC*mA*T*C*C*C*T*T*C*T*G*C*mU*mG*mA*mC*mA (UCCCATCCCTTCTGCUGACA; sugars from the 5' end m5 d10 m5, all phosphorothioate, methylation of C not given here) [[LINC-PINT]101]	10.88 fold	–	–
mA*mU*mA*mU*mC*T*G*C*T*G*C*C*C*A*C*mC*mU*mU*mC*mU (AUAUCTGCTGCCCACCUUCU; antisense; sugars from the 5' end m5 d10 m5, all phosphorothioate, methylation of C not given here) [[CDKN2B-AS1]831]	5.89 fold	–	–
mA*mA*mA*mA*mG*A*T*T*A*T*C*T*T*C*T*mU*mU*mU*mA*mA (AAAAGATTATCTTCTUUUAA; sugars from the 5' end m5 d10 m5, all phosphorothioate, methylation of C not given here) [[CDKN2B-AS1]2133]	4.68 fold	–	–
mU*mG*mU*mG*mA*A*A*A*G*A*T*T*A*T*C*mU*mU*mC*mU*mU (UGUGAAAAGATTATCUUCUU; sugars from the 5' end m5 d10 m5, all phosphorothioate, methylation of C not given here) [[CDKN2B-AS1]2137]	4.97 fold	–	–
mU*mU*mU*mG*mA*A*A*T*T*C*A*G*A*A*G*mA*mU*mU*mU*mG (mU*mU*mU*mG*mA*dA*dA*dT*dT*dC*dA*dG*dA*dA*dG*mA*mU*mU*mU*mG) [[LINC PINT|2690]	4.93 fold	–	–
mG*mG*mU*mG*mG*C*C*A*C*A*G*G*C*A*A*mC*mG*mU*mC*mA (GGUGGCCACAGGCAACGUCA; antisense; sugars from the 5' end m5 d10 m5, all phosphorothioate, methylation of C not given here) [[CDKN2B-AS1]2196]	0.98 fold	–	–
mC*mC*mA*mU*mC*C*C*T*T*C*T*G*C*T*G*mC*mC*mA*mA*mG (mC*mC*mA*mU*mC*dC*dC*dT*dT*dC*dT*dG*dC*dT*dG*mC*mC*mA*mA*mG; antisense) [ILING-PINT199]	5.67 fold	–	–
mA*mA*mA*mA*mU*A*A*G*G*G*G*A*A*T*A*mG*mG*mG*mG*mA (mA*mA*mA*mA*mU*dA*dA*dG*dG*dG*dG*dA*dA*dT*dA*mG*mG*mG*mG*mA; antisense) [[CDKN2B-AS1]79]	0.71 fold	–	–
mC*mU*mC*mU*mC*T*G*G*T*C*C*C*A*T*C*mC*mC*mU*mU*mC (mC*mU*mC*mU*mC*dT*dG*dG*dT*dC*dC*dC*dA*dT*dC*mC*mC*mU*mU*mC; antisense) [[LINC-PINT]109]	10.10 fold	–	–
CGGCATCCACCACGTCGTCC (antisense; 2'-MOE modified, pattern not given here) [EGFR-3267 MOE]	–	1.249	0.903
mA*mG*mA*mA*mA*G*A*A*G*C*A*A*A*G*A*mU*mU*mC*mA*mA (AGAAAGAAGCAAAGAUUCAA; sugars from the 5' end m5 d10 m5, all phosphorothioate, methylation of C not given here) [[CDKN2B-AS1]1519]	2.78 fold	–	–
mC*mC*mA*mU*mG*T*C*C*C*A*G*G*C*C*T*mC*mC*mA*mG*mU (CCAUGTCCCAGGCCTCCAGU; sugars from the 5' end m5 d10 m5, all phosphorothioate, methylation of C not given here) [[CDKN2B-AS1]2227]	1.46 fold	–	–
CGGAGGTCTTGGCTTCGTGG (antisense; 2'-MOE modified, pattern not given here) [MB21D1-525 MOE]	–	2.197	3.257
TGGGTTACGGCTCAGTATGG (antisense; 2'-MOE modified, pattern not given here) [CAMSAP1-4295 MOE]	–	1.610	1.538
